Reference: paper PMC9021288 (Nature Communications, 2022)
Read-outs that look alike come from different tables or passages of the source.

Tested on: TA98, TA100, TA102, TA1535, TA1537
Method: Safety studies were performed by commercial services using their standard protocols. […] Genotoxicity was investigated using the Ames test (Bacterial Reverse Mutation Assay) (Covance Laboratories Ltd, North Yorkshire, England). In vitro mammalian cell micronucleus screening assay was studied in human peripheral blood lymphocytes (BioReliance Corporation, Rockville, USA). Cardiotoxicity was determined against the hERG channel in an automated patch clamp assay using the Qpatch or against the hNaV 1.5, hKV 1.5 and hCaV 1.2 using a manual patch-clamp technique (Metrion Biosciences, Cambridge, UK). Cytotoxicity in human and rat primary hepatocytes was assessed using the CellTiter-Blue assay performed by commercial services (KaLy-Cell). The viability of HepG2 cells was monitored through the addition of 1 mM resazurin. Following 6 h incubation, the relative amount of reduced resazurin was detected in a fluorimeter and compared to the assay controls (vehicle: 0.1% DMSO and positive control: 10 µM puromycin).

SMILES: C[C@@H](CNC(=O)[C@H](O)C(C)(C)CO)NC(=O)c1cc(F)c(F)cc1F [MMV693183]
- Mean (Revertant Numbers Per Plate) (TA102, +S-9, 5000 ug/plate): 184.3
- Fold Increase (TA102, -S-9, 5 ug/plate): 1
- Mean (Revertant Numbers Per Plate) (TA102, -S-9, 5 ug/plate): 245.7
- Fold Increase (TA102, -S-9, 16 ug/plate): 1.1
- Mean (Revertant Numbers Per Plate) (TA102, -S-9, 16 ug/plate): 251.3
- Fold Increase (TA102, -S-9, 50 ug/plate): 1.1
- Mean (Revertant Numbers Per Plate) (TA102, -S-9, 50 ug/plate): 256.3
- Fold Increase (TA102, -S-9, 160 ug/plate): 1
- Mean (Revertant Numbers Per Plate) (TA102, -S-9, 160 ug/plate): 240
- Fold Increase (TA102, -S-9, 500 ug/plate): 0.9
- Mean (Revertant Numbers Per Plate) (TA102, -S-9, 500 ug/plate): 202.7
- Fold Increase (TA102, -S-9, 1600 ug/plate): 0.8
- Mean (Revertant Numbers Per Plate) (TA102, -S-9, 1600 ug/plate): 181.7
- Fold Increase (TA102, -S-9, 5000 ug/plate): 0.1
- Mean (Revertant Numbers Per Plate) (TA102, -S-9, 5000 ug/plate): 26.7
- Fold Increase (TA1535, +S-9, 5 ug/plate): 0.9
- Mean (Revertant Numbers Per Plate) (TA1535, +S-9, 5 ug/plate): 20.7
- Fold Increase (TA1535, +S-9, 16 ug/plate): 0.8
- Mean (Revertant Numbers Per Plate) (TA1535, +S-9, 16 ug/plate): 19.3
- Fold Increase (TA1535, +S-9, 50 ug/plate): 1
- Mean (Revertant Numbers Per Plate) (TA1535, +S-9, 50 ug/plate): 23.3
- Fold Increase (TA1535, +S-9, 160 ug/plate): 1.1
- Mean (Revertant Numbers Per Plate) (TA1535, +S-9, 160 ug/plate): 25
- Fold Increase (TA1535, +S-9, 500 ug/plate): 0.8
- Mean (Revertant Numbers Per Plate) (TA1535, +S-9, 500 ug/plate): 17.7
- Fold Increase (TA1535, +S-9, 1600 ug/plate): 1
- Mean (Revertant Numbers Per Plate) (TA1535, +S-9, 1600 ug/plate): 24
- Fold Increase (TA1535, +S-9, 5000 ug/plate): 1
- Mean (Revertant Numbers Per Plate) (TA1535, +S-9, 5000 ug/plate): 22.7
- Fold Increase (TA1535, -S-9, 5 ug/plate): 1.4
- Mean (Revertant Numbers Per Plate) (TA1535, -S-9, 5 ug/plate): 35
- Fold Increase (TA1535, -S-9, 16 ug/plate): 0.8
- Mean (Revertant Numbers Per Plate) (TA1535, -S-9, 16 ug/plate): 20.7
- Fold Increase (TA1535, -S-9, 50 ug/plate): 0.9
- Mean (Revertant Numbers Per Plate) (TA1535, -S-9, 50 ug/plate): 22
- Fold Increase (TA1535, -S-9, 160 ug/plate): 0.9
- Mean (Revertant Numbers Per Plate) (TA1535, -S-9, 160 ug/plate): 24
- Fold Increase (TA1535, -S-9, 500 ug/plate): 1.2
- Mean (Revertant Numbers Per Plate) (TA1535, -S-9, 500 ug/plate): 29.3
- Fold Increase (TA1535, -S-9, 1600 ug/plate): 1
- Mean (Revertant Numbers Per Plate) (TA1535, -S-9, 1600 ug/plate): 26
- Fold Increase (TA1535, -S-9, 5000 ug/plate): 0.9
- Mean (Revertant Numbers Per Plate) (TA1535, -S-9, 5000 ug/plate): 22
- difference in revertant numbers vs control (TA1535, TA1537): < 3 fold
- Fold Increase (TA1537, +S-9, 5 ug/plate): 1.4
- Mean (Revertant Numbers Per Plate) (TA1537, +S-9, 5 ug/plate): 10
- Fold Increase (TA1537, +S-9, 16 ug/plate): 1.1
- Mean (Revertant Numbers Per Plate) (TA1537, +S-9, 16 ug/plate): 7.7
- Fold Increase (TA1537, +S-9, 50 ug/plate): 1.9
- Mean (Revertant Numbers Per Plate) (TA1537, +S-9, 50 ug/plate): 13.3
- Fold Increase (TA1537, +S-9, 160 ug/plate): 1
- Mean (Revertant Numbers Per Plate) (TA1537, +S-9, 160 ug/plate): 7.3
- Fold Increase (TA1537, +S-9, 500 ug/plate): 1.6
- Mean (Revertant Numbers Per Plate) (TA1537, +S-9, 500 ug/plate): 11
- Fold Increase (TA1537, +S-9, 1600 ug/plate): 1.4
- Mean (Revertant Numbers Per Plate) (TA1537, +S-9, 1600 ug/plate): 9.7
- Fold Increase (TA1537, +S-9, 5000 ug/plate): 1
- Mean (Revertant Numbers Per Plate) (TA1537, +S-9, 5000 ug/plate): 7.3
- Fold Increase (TA1537, -S-9, 5 ug/plate): 1.1
- Mean (Revertant Numbers Per Plate) (TA1537, -S-9, 5 ug/plate): 7.7
- Fold Increase (TA1537, -S-9, 16 ug/plate): 0.9
- Mean (Revertant Numbers Per Plate) (TA1537, -S-9, 16 ug/plate): 6.3
- Fold Increase (TA1537, -S-9, 50 ug/plate): 1
- Mean (Revertant Numbers Per Plate) (TA1537, -S-9, 50 ug/plate): 6.7
- Fold Increase (TA1537, -S-9, 160 ug/plate): 0.8
- Mean (Revertant Numbers Per Plate) (TA1537, -S-9, 160 ug/plate): 5.3
- Fold Increase (TA1537, -S-9, 500 ug/plate): 1
- Mean (Revertant Numbers Per Plate) (TA1537, -S-9, 500 ug/plate): 7.3
- Fold Increase (TA1537, -S-9, 1600 ug/plate): 0.9
- Mean (Revertant Numbers Per Plate) (TA1537, -S-9, 1600 ug/plate): 6
- Fold Increase (TA1537, -S-9, 5000 ug/plate): 0.6
- Mean (Revertant Numbers Per Plate) (TA1537, -S-9, 5000 ug/plate): 4
